Patent US20100210562A1, “USE OF IL-1 RECEPTOR PEPTIDE, ALONE OR IN COMBINATION WITH D-ALA-GLN-OCTADECYL ESTER, AS A THERAPEUTIC AGENT” (priority 2007, published 2010)
Where no end group is shown, it is not given here.

Tests used:
HIV-1IIIB = settings: positive controls; MTS readout
HCMV strain AD169 = assay: HCMV plaque formation assay in MRC-5 cells; settings: for inhibition of HCMV plaque formation as compared to the virus control experiment: 10 micrograms per ml, 7-10 days
[1] = test system: hepatitis B virus (HBV) ayw strain; assay: HBV experimental assay system, secreted HBV DNA by TaqMan PCR in HepG2-2.2.15; type: cell-based; settings: 10 micrograms per ml; 6 days; HBV DNA in supernatant
[2] = test system: Th1/Th2 cytokine production (IL-2, IL-4, IL-5, IFN-γ, TNF-α) in murine spleen cells; assay: Th1/Th2 cytokine profiling assay in ovalbumin-restimulated spleen cells; type: cell-based, Balb/c mice; settings: 10 micrograms per ml; ovalbumin restimulation; 72 hours
Source text: The Balb/c mice (originated in 1923, it is a popular strain and is used in many different research disciplines. Also classified as an inbred from the production of 20 or more successive brother-sister matings, the Balb/c mouse is albino and small in size) were immunized on Days 1, 15, and 29 with Ovalbumin (Ovalbumin is the main protein found in egg white, commonly used to stimulate an immunological reaction in test animals) in PBS (5 micrograms/injection). On day 50, spleens of the mice were harvested (3 weeks after last boost with Ovalbumin). Cells were cultured (2×10^5/well in triplicate) and incubated with culture medium or test peptides—10 micrograms per ml—for 30 min. Thereafter, additional Ovalbumin was added to the cells at 10 micrograms/ml for in vitro restimulation of the cells. 72 hours later, cell supernatants were harvested and assayed using the Becton Dickinson Mouse Th1/Th2 Cytokine CBA Kit.

[3] = test system: Primary Human endothelial cells (HUVEC); assay: Endothelial cell migration assay; type: cell-based; settings: 10 micrograms per ml; 22 hours
Experimental: Thereafter, designated concentration of testing peptides—10 micrograms per ml—was added in duplicate wells.

HUVEC = assay: Endothelial tube formation assay; type: cell-based, human; settings: 10 micrograms per ml; 20 hours; average tubule length
Source text: Positive control was vehicle only. […] Raw data were expressed as average tubule lenghs in pixels±standard deviation.

Molecule | antiviral activity of positive control compounds (HIV-1) (HIV-1IIIB) | antiviral activity of positive control compound (HCMV) (HCMV strain AD169; positive control) | inhibition of HBV replication as compared to the virus control infection [1] | change of the production of IL-2 in murine spleen cells [2] | change of the production of IL-4 in murine spleen cells [2] | decrease of the production of IFN-γ in murine spleen cells [2] | decrease of the production of IL-5 in murine spleen cells [2] | decrease of the production of TNF-a in murine spleen cells [2] | increase of the migration of endothelial cells [3] | inhibition of the tube formation of human endothelial cells (HUVEC) | inhibition of HCMV plaque formation as compared to the virus control experiment (HCMV strain AD169) | inhibition of the migration of human endothelial cells [3]
Cc1cn([C@H]2C[C@H](N=[N+]=[N-])[C@@H](CO)O2)c(=O)[nH]c1=O [AZT] | expected levels of antiviral activity |  |  |  |  |  |  |  |  |  |  | 
Nc1nc(O)c2ncn(COC(CO)CO)c2n1 [Ganciclovir, reference compound] |  | expected levels of antiviral activity |  |  |  |  |  |  |  |  |  | 
CC(C)(C)NC(=O)[C@@H]1CN(Cc2cccnc2)CCN1C[C@@H](O)C[C@@H](Cc1ccccc1)C(=O)N[C@H]1c2ccccc2C[C@H]1O [indinavir] | expected levels of antiviral activity |  |  |  |  |  |  |  |  |  |  | 
D-Ala-Gln-octadecyl ester [Peptide 2] |  |  | 66.0% | did not significantly change | did not significantly change | 98.1% | 74.2% | 71.3% | 2% | 10% | 2.9% | 
Lys-Ile-Cys-Ile-Arg-Ile-Gln-Ile-Ser-OH (KICIRIQIS-OH) [Peptide 1] |  |  | 41.0% | did not significantly change | did not significantly change | did not significantly change | did not significantly change | 97% |  | 12% | did not inhibit | 32%
